In patent US20130287807A1, “COMPOUNDS FOR TREATING SYMPTOMS ASSOCIATED WITH PARKINSON'S DISEASE” (priority 2008, published 2013):

Experiments:
[1] = system: monoclonal antibody MV-001; experiment: In vitro inhibition assay (ELISA), MV-001 binding to original epitope; design: species or system C57/B16 mice; settings: Table 2C; OD at 10 ug peptide compared to original peptide
Procedure: (§1) Different amounts of peptides (concentrations ranging from 10 μg to 0.08 μg; serial dilutions; for MV-002: concentrations ranging from 5 μg to 0.03 μg; serial dilutions), derived from Phage Display were incubated with the monoclonal antibody that was used for the screening procedure. Peptides diminishing subsequent binding of the antibody to the original epitope coated on ELISA plates were considered as inhibiting in this assay.
(§2) Legend to Table 2C: the inhibition capacity is coded by the following code: Weak inhibition means more peptide is required to lower AB binding than with the original epitope; strong inhibition means similar peptide amounts are required for mimotope and original epitope for lowering AB binding. Mimotopes are compared to the original peptide as standard. OD at 10 ug peptide used in the assay is used to calculate the competition capacity compared to original peptide.

[2] = system: monoclonal antibody MV-001; experiment: In vitro binding assay (ELISA), BSA-coupled peptides, parental antibody MV-001; design: species or system C57/B16 mice; settings: Table 1C; peptide-BSA on plate, compared to original epitope
Procedure: (§3) Peptides derived from Phage Display as well as variants thereof were coupled to BSA and bound to ELISA plates (1 μM; as indicated in the respective figures) and subsequently incubated with the monoclonal antibody that was used for the screening procedure to analyse binding capacity of identified peptides.
Legend to Table 1C: the binding capacity is coded by the following binding code: 1:X describes the dilution factor of the parental AB

[3] = system: Aβ/truncated/modified forms; experiment: In vivo characterisation of mimotopes: detection of Aβ/truncated/modified forms; design: species or system C57/B16 mice; key: +: All peptides listed in Table 4 mount specific immune reactions against full length and/or truncated and modified forms of Aβ or fragments thereof; settings: Table 4, MV-001 derived mimotopes
Procedure: (§4) Inhibiting as well as non-inhibiting peptides were coupled to KLH and injected into mice (wildtype C57/B16 mice; subcutaneous injection into the flank) together with an appropriate adjuvant (aluminium hydroxide). Animals were vaccinated 3-6 times in biweekly intervals and sera were taken biweekly as well. Titers to injected peptides, as well as to an irrelevant peptide were determined with every serum. Furthermore, titers against the recombinant human Aβ protein, and against original peptides were determined respectively. In general sera were analysed by reaction against peptides coupled to Bovine Serum Albumin (BSA) and recombinant full length proteins which were immobilised on ELISA plates. Titers were determined using anti mouse IgG specific antibodies. For detailed results see FIGS. 15, 16 and 17 respectively and FIGS. 23, 24 and 25 respectively.
(§5) Female C57/b16 mice, 5-6 mice per group, were subcutaneously immunized with 30 μg peptide coupled to KLH. Control groups were administered original epitope-KLH conjugates respectively. As adjuvant alum was used (always 1 mg per mouse). […] The in vitro ELISA assay to determine the antibody titer was performed with sera of single mice after each vaccination in a two week interval (see FIGS. 15 and 16 respectively). The wells of the ELISA plate were coated with mimotope-BSA conjugate and an irrelevant peptide-BSA conjugate (negative control). The positive control was performed by reaction of the parental antibody with the respective mimotope-BSA conjugate. The detection was performed with anti-mouse IgG. Additionally, recombinant proteins were immobilised on ELISA plates and sera reacted accordingly. FIGS. 15 to 17 show representative examples for assays used to characterise mimotopes in vivo.
as §5, with “FIGS. 25” for “FIGS. 15”, “and 26” for “and 16”, “respectively). Titers were calculated as OD max/2 in all figures shown.” for “respectively).”, “FIGS. 23, 24 and 25” for “FIGS. 15 to 17”

[4] = system: monoclonal antibody MV-002; experiment: In vitro inhibition assay (ELISA), MV-002 binding to original epitope; design: species or system C57/B16 mice; settings: Table 2 (MV-002); OD at 5 ug peptide compared to original peptide
Procedure: as §1
as §2, with “2:” for “2C:”, “5” for “10”

[5] = system: monoclonal antibody MV-002; experiment: In vitro binding assay (ELISA), BSA-coupled peptides, parental antibody MV-002; design: species or system C57/B16 mice; settings: Table 1 (MV-002); peptide-BSA on plate, compared to original epitope
Procedure: as §3
Legend to Table 1: the binding capacity is coded by the following binding code: 1:X describes the dilution factor of the parental AB. Ac- . . . indicates acetylated AA.

[6] = system: Aβ/truncated/modified forms; experiment: In vivo characterisation of mimotopes: detection of Aβ/truncated/modified forms; design: species or system C57/B16 mice; key: +: All peptides listed in table 4 mount specific immune reactions against full length and/or truncated and modified forms of Aβ or fragments thereof; settings: Table 4, MV-002 derived mimotopes
Procedure: as §4, §5
as §5, with “FIGS. 25” for “FIGS. 15”, “and 26” for “and 16”, “respectively). Titers were calculated as OD max/2 in all figures shown.” for “respectively).”, “FIGS. 23, 24 and 25” for “FIGS. 15 to 17”

[7] = biological target: monoclonal antibody MV-002; experiment: ELISA on peptide-BSA; code 1 = weak binding, OD halfmax 1:<40000

Row | Binding Capacity [2] | Binding Capacity [5] | Molecule | Inhibition Capacity [1] | Detection of Aβ/truncated/modified forms [3] | also measured
1 | 3 (strong binding :>20000) | – | ADHDFRHC [p4740] | 1 (Weaker than original epitope (OD of 10 ug peptide below 3 times of original peptide)) | + | –
2 | 3 (strong binding :>20000) | – | TSVFRHC [p4383] | 1 (Weaker than original epitope (OD of 10 ug peptide below 3 times of original peptide)) | + | –
3 | 3 (strong binding :>20000) | – | QSEFKHWC [p4738] | 1 (Weaker than original epitope (OD of 10 ug peptide below 3 times of original peptide)) | + | –
4 | – | 3 (strong binding :>320000) | SHQRLWFC [p4674] | – | – | Inhibition Capacity [4]: 1 (Weaker than original epitope (OD of peptide below 4, 6 times of original peptide))
5 | 3 (strong binding :>20000) | – | DEHPFRHC [p4730] | 1 (Weaker than original epitope (OD of 10 ug peptide below 3 times of original peptide)) | + | –
6 | – | 3 (strong binding :>320000) | THQRLWFC [p4693] | – | – | Detection of Aβ/truncated/modified forms [6]: +
7 | – | 1 (weak binding :<40000) | SGEIHFNC [p4415] | – | – | Detection of Aβ/truncated/modified forms [6]: +
8 | 3 (strong binding :>20000) | – | TEFRHKAC [p4753] | 2 (strong inhibition (as original epitope; OD of 10 ug peptide below 2 times of original peptide)) | + | –
9 | – | 3 (strong binding :>320000) | GELWFPC [p4673] | – | – | Detection of Aβ/truncated/modified forms [6]: +; Inhibition Capacity [4]: 1 (Weaker than original epitope (OD of peptide below 4, 6 times of original peptide))
10 | – | 1 (weak binding :<40000) | SGEYVFHC [p4404] | – | – | Detection of Aβ/truncated/modified forms [6]: +
11 | – | 3 (strong binding :>320000) | GEIRFGSC [p4696] | – | – | Detection of Aβ/truncated/modified forms [6]: +
12 | 2 (medium binding :4000-20000) | – | SQFRHYC [p4385] | 1 (Weaker than original epitope (OD of 10 ug peptide below 3 times of original peptide)) | + | –
13 | 3 (strong binding :>20000) | – | LMFRHNC [p4386] | 1 (Weaker than original epitope (OD of 10 ug peptide below 3 times of original peptide)) | + | –
14 | 3 (strong binding :>20000) | – | THTDFRHC [p4725] | 1 (Weaker than original epitope (OD of 10 ug peptide below 3 times of original peptide)) | + | –
15 | – | 3 (strong binding :>320000) | GEILFGMC [p4689] | – | – | Inhibition Capacity [4]: 1 (Weaker than original epitope (OD of peptide below 4, 6 times of original peptide))
16 | – | 3 (strong binding :>320000) | GEIQFGAC [p4699] | – | – | Detection of Aβ/truncated/modified forms [6]: +; Inhibition Capacity [4]: 1 (Weaker than original epitope (OD of peptide below 4, 6 times of original peptide))
17 | – | 2 (medium binding :40000-320000) | HQKMIFC [p4794] | – | – | Inhibition Capacity [4]: 1 (Weaker than original epitope (OD of peptide below 4, 6 times of original peptide))
18 | 3 (strong binding :>20000) | – | YEFRHAQC [p4748] | – | + | –

Row | Binding Capacity [2] | Binding Capacity [5] | Molecule | Inhibition Capacity [1] | Detection of Aβ/truncated/modified forms [3] | also measured
19 | 3 (strong binding :>20000) | – | ELFKHHLC [p4714] | – | + | –
20 | 3 (strong binding :>20000) | – | TLHEFRHC [p4715] | 2 (strong inhibition (as original epitope; OD of 10 ug peptide below 2 times of original peptide)) | + | –
21 | 3 (strong binding :>20000) | – | SPNQFRHC [p4707] | 1 (Weaker than original epitope (OD of 10 ug peptide below 3 times of original peptide)) | + | –
22 | – | 1 (weak binding :<40000) | SGQLKFPC [p4413] | – | – | Detection of Aβ/truncated/modified forms [6]: +
23 | 3 (strong binding :>20000) | – | SEFKHGC [p4381] | 1 (Weaker than original epitope (OD of 10 ug peptide below 3 times of original peptide)) | + | –
24 | – | 1 (weak binding :<40000) | SGQIWFRC [p4414] | – | – | Detection of Aβ/truncated/modified forms [6]: +
25 | – | 3 (strong binding :>320000) | GEIKFDHC [p4698] | – | – | Detection of Aβ/truncated/modified forms [6]: +; Inhibition Capacity [4]: 2 (strong inhibition (as original epitope; OD of peptide below 2, 3 times of original peptide))
26 | 3 (strong binding :>20000) | – | ILFRHGC [p4390] | 1 (Weaker than original epitope (OD of 10 ug peptide below 3 times of original peptide)) | + | –
27 | – | 3 (strong binding :>320000) | NDAKIVFC [p4667] | – | – | Inhibition Capacity [4]: 1 (Weaker than original epitope (OD of peptide below 4, 6 times of original peptide))
28 | – | – | GTIFFRDC [p4692] | – | – | OD halfmax dilution factor of the parental antibody (1:X) (dilutionfactor(1:x)) [7]: < 40000
29 | – | – | SGQLKFPC [p4413] | – | – | OD halfmax dilution factor of the parental antibody (1:X) (dilutionfactor(1:x)) [7]: < 40000
30 | – | – | AIPLFVMC [p4682] | – | – | OD halfmax dilution factor of the parental antibody (1:X) (dilutionfactor(1:x)) [7]: < 40000
31 | – | – | SGEIHFNC [p4415] | – | – | OD halfmax dilution factor of the parental antibody (1:X) (dilutionfactor(1:x)) [7]: < 40000
32 | – | – | SGEYVFHC [p4404] | – | – | OD halfmax dilution factor of the parental antibody (1:X) (dilutionfactor(1:x)) [7]: < 40000
33 | – | – | SHTRLYFC [p4403] | – | – | OD halfmax dilution factor of the parental antibody (1:X) (dilutionfactor(1:x)) [7]: < 40000
34 | – | – | GQIWFISC [p4666] | – | – | OD halfmax dilution factor of the parental antibody (1:X) (dilutionfactor(1:x)) [7]: < 40000
35 | – | – | KLPLFVMC [p4691] | – | – | OD halfmax dilution factor of the parental antibody (1:X) (dilutionfactor(1:x)) [7]: < 40000
36 | – | – | SGQIWFRC [p4414] | – | – | OD halfmax dilution factor of the parental antibody (1:X) (dilutionfactor(1:x)) [7]: < 40000
